The test system of series [1] is human lung carcinoma cells (A549). In words: MTT cytotoxicity assay, A549. It is filed as cell-based. Particulars: read-out: IC50 (μM) A549. (Tetrazolium dyes change colour on reduction, which living cells bring about.)
In series [2] the test system is human colorectal cells (HCT-116). In words: MTT cytotoxicity assay, HCT-116. It is filed as cell-based. As to conditions: read-out: IC50 (μM) HCT-116.
Series [3] concerns human breast carcinoma cells (MCF-7). In words: MTT cytotoxicity assay, MCF-7. As to conditions: read-out: IC50 (μM) MCF-7. It is filed as cell-based.
Series [4] has as its system normal human gastric epithelial cells (GES-1). The series is described as follows: MTT cytotoxicity assay, GES-1 normal cells. It is filed as cell-based. As to conditions: read-out: IC50 (μM) GES-1.
Setting [5] is: A549, MTT, 48 h, means ± SD of three experiments.
[6] abbreviates: HCT-116, MTT, 48 h, means ± SD of three experiments.
The mark [7] stands for this setting: Homo sapiens, MCF7, 48 h, MTT, 48 h, means ± SD of three experiments.
Setting [8] is: GES1, MTT, 48 h, normal cells, means ± SD of three experiments, “-” not active.
[9] abbreviates: MTT, 48 h, means ± SD of three experiments.

For 15 molecules, IC50 and melting point results are on record in article PMC8587101, “Design and Synthesis of Novel Betulin Derivatives Containing Thio-/Semicarbazone Moieties as Apoptotic Inducers through Mitochindria-Related Pathways” (Molecules, 2021).

Several values for one entry are separate records, joined by “and”; a condition that tells them apart may be missing. Equal entries are not always repeated. Where two headings read alike, the source gives them in different places.

As for `C=C(C)[C@@H]1CC[C@]2(CO)CC[C@]3(C)[C@H](CC[C@@H]4[C@@]5(C)CC[C@H](O)C(C)(C)[C@@H]5CC[C@]43C)[C@@H]12` [Compound 1, lup-20(29)-ene-3β,28-diol, reference compound], the IC50 came to 27.1 ± 1.2 µM in series [1] (A549, 48 h); 30 ± 1.22 µM in series [2] (HCT-116, 48 h); 19.4 ± 0.93 µM in series [3] (Homo sapiens, MCF7, 48 h); 108 ± 4.34 µM in series [4] (GES1, 48 h).
Consider `C=C(C)[C@@H]1CC[C@]2(/C=N/NC(=O)Nc3ccc(Cl)cc3)CC[C@]3(C)C(CCC4[C@@]5(C)CC[C@H](O)C(C)(C)C5CC[C@]43C)C12` (stereo partly drawn) [Compound 7a, Lup-20(29)-ene-3β-ol-28-N-(4-chlorophenyl)semicarbazide], for which the melting point is 227.2 to 228.3 °C. In series [1] (setting [5]), the concentration for half-maximal inhibition (IC50) was 18.1 ± 1.03 µM. In addition, the concentration for half-maximal inhibition (IC50) in series [2] (setting [6]) was 34.8 ± 1.25 µM. The IC50 in series [3] (setting [7]) came out at 8.57 ± 0.6 µM. In addition, in series [4] (setting [8]), the IC50 came to 70.8 ± 2.12 µM.
As for `C=C(C)[C@@H]1CC[C@]2(/C=N/NC(=O)Nc3ccc(C#N)cc3)CC[C@]3(C)C(CCC4[C@@]5(C)CC[C@H](O)C(C)(C)C5CC[C@]43C)C12` (stereo partly drawn) [Compound 7b, Lup-20(29)-ene-3β-ol-28-N-(4-cyanophenyl)semicarbazide], the melting point is 236.5 to 238 °C. For the same molecule, the IC50 in series [1] (setting [5]) was found to be 25.1 ± 1.01 µM. Also, the IC50 in series [2] (setting [6]) is 51.1 ± 2.52 µM. Besides, in series [3] (setting [7]), the IC50 was under 10 µM. In series [3] (setting [9]), the IC50 was determined as 7.88 ± 0.54 µM. Besides, the concentration for half-maximal inhibition (IC50) in series [4] (setting [8]) amounted to 85.4 ± 3.37 µM.
Molecule `C=C(C)[C@@H]1CC[C@]2(/C=N/NC(=O)Nc3ccc(OC)cc3)CC[C@]3(C)C(CCC4[C@@]5(C)CC[C@H](O)C(C)(C)C5CC[C@]43C)C12` (stereo partly drawn) [Compound 7c, Lup-20(29)-ene-3β-ol-28-N-(4-methoxyphenyl)semicarbazide] showed a melting point of 214.2 to 216 °C. In addition, the IC50 in series [1] (setting [5]) was over 80 µM. For the same molecule, the IC50 in series [2] (setting [6]) was over 80 µM. Moreover, the concentration for half-maximal inhibition (IC50) in series [3] (setting [7]) turned out to be 44.4 ± 2.26 µM. Further, the IC50 in series [4] (setting [8]) was over 80 µM.
Molecule `C=C(C)[C@@H]1CC[C@]2(/C=N/NC(=O)Nc3ccc(C(F)(F)F)cc3)CC[C@]3(C)C(CCC4[C@@]5(C)CC[C@H](O)C(C)(C)C5CC[C@]43C)C12` (stereo partly drawn) [Compound 7d, Lup-20(29)-ene-3β-ol-28-N-(4-(trifluoromethyl)phenyl)semicarbazide] had a melting point of 221.5 to 222.7 °C. In series [1] (setting [5]), the IC50 was found to be 29.4 ± 1.12 µM. Also, in series [2] (setting [6]), the IC50 turned out to be 28.6 ± 1.36 µM. Besides, in series [3] (setting [7]), the half-inhibitory concentration (IC50) was found to be 15.3 ± 1.23 µM. Moreover, the IC50 in series [4] (setting [8]) turned out to be 168 ± 4.59 µM.
Take `C=C(C)[C@@H]1CC[C@]2(/C=N/NC(=O)Nc3cccc(C(F)(F)F)c3)CC[C@]3(C)C(CCC4[C@@]5(C)CC[C@H](O)C(C)(C)C5CC[C@]43C)C12` (stereo partly drawn) [Compound 7e, Lup-20(29)-ene-3β-ol-28-N-(3-(trifluoromethyl)phenyl)semicarbazide]: the melting point was 223.4 to 225.1 °C. In addition, the half-maximal inhibitory concentration (IC50) in series [1] (setting [5]) was found to be 43.8 ± 1.44 µM. In addition, the IC50 in series [2] (setting [6]) turned out to be 26.1 ± 1.17 µM. Further, in series [3] (setting [7]), the IC50 was under 10 µM. The IC50 in series [3] (setting [9]) is 5.86 µM and 5.96 µM. Further, in series [4] (setting [8]), the IC50 amounted to 196 ± 5.82 µM.
Take `C=C(C)[C@@H]1CC[C@]2(/C=N/NC(=O)Nc3cccc(C)c3)CC[C@]3(C)C(CCC4[C@@]5(C)CC[C@H](O)C(C)(C)C5CC[C@]43C)C12` (stereo partly drawn) [Compound 7f, Lup-20(29)-ene-3β-ol-8-N-(m-tolyl)semicarbazide]: the melting point was 224.2 to 226 °C. Further, the half-maximal inhibitory concentration (IC50) in series [1] (setting [5]) was over 80 µM. Besides, the half-inhibitory concentration (IC50) in series [2] (setting [6]) was over 80 µM. Moreover, in series [3] (setting [7]), the IC50 was 26.8 ± 1.34 µM. The concentration for half-maximal inhibition (IC50) in series [4] (setting [8]) is over 80 µM.
Regarding `C=C(C)[C@@H]1CC[C@]2(/C=N/NC(=O)Nc3ccc(Cl)c(C(F)(F)F)c3)CC[C@]3(C)C(CCC4[C@@]5(C)CC[C@H](O)C(C)(C)C5CC[C@]43C)C12` (stereo partly drawn) [Compound 7g, Lup-20(29)-ene-3β-ol-28-N-((3-trifluoromethyl-4-chloro)phenyl)semicarbazide], the melting point was 211.6 to 213 °C. For the same molecule, the 50% inhibitory concentration (IC50) in series [1] (setting [5]) was found to be 33.6 ± 1.15 µM. Moreover, the IC50 in series [2] (setting [6]) worked out at 13.5 ± 0.74 µM. The concentration for half-maximal inhibition (IC50) in series [3] (setting [7]) is under 10 µM. In addition, in series [3] (setting [9]), the IC50 was found to be 7.06 ± 0.44 µM. For the same molecule, the IC50 in series [4] (setting [8]) worked out at 145 ± 3.88 µM.
For the molecule `C=C(C)[C@@H]1CC[C@]2(/C=N/NC(=S)Nc3ccc(F)cc3)CC[C@]3(C)C(CCC4[C@@]5(C)CC[C@H](O)C(C)(C)C5CC[C@]43C)C12` (stereo partly drawn) [Compound 8a, Lup-20(29)-ene-3β-ol-28-N-(4-fluorophenyl)thiosemicarbazide], the melting point lay in the range of 209.3 to 211 °C. Moreover, the 50% inhibitory concentration (IC50) in series [1] (setting [5]) turned out to be 24.1 ± 1.11 µM. For the same molecule, the IC50 in series [2] (setting [6]) is 32.5 ± 1.26 µM. The IC50 in series [3] (setting [7]) was under 10 µM. Besides, the 50% inhibitory concentration (IC50) in series [3] (setting [9]) worked out at 9.8 ± 0.58 µM. Moreover, in series [4] (setting [8]), the IC50 amounted to 177 ± 5.02 µM.
Regarding `C=C(C)[C@@H]1CC[C@]2(/C=N/NC(=S)Nc3ccc(Cl)cc3)CC[C@]3(C)C(CCC4[C@@]5(C)CC[C@H](O)C(C)(C)C5CC[C@]43C)C12` (stereo partly drawn) [Compound 8b, Lup-20(29)-ene-3β-ol-28-N-(4-chlorophenyl)thiosemicarbazide], the melting point was 212.5 to 214 °C. Also, in series [1] (setting [5]), the concentration for half-maximal inhibition (IC50) worked out at 18.7 ± 0.98 µM. Besides, in series [2] (setting [6]), the half-maximal inhibitory concentration (IC50) turned out to be 49.5 ± 1.44 µM. Moreover, the half-inhibitory concentration (IC50) in series [3] (setting [7]) is under 10 µM. Moreover, the IC50 in series [3] (setting [9]) was 7.79 ± 0.45 µM. In series [4] (setting [8]), the IC50 was 203 ± 5.74 µM.
`C=C(C)[C@@H]1CC[C@]2(/C=N/NC(=S)Nc3ccc(C)cc3)CC[C@]3(C)C(CCC4[C@@]5(C)CC[C@H](O)C(C)(C)C5CC[C@]43C)C12` (stereo partly drawn) [Compound 8c, Lup-20(29)-ene-3β-ol-28-N-(p-tolyl)thiosemicarbazide] registered a melting point of 206.4 to 208.2 °C. In addition, the half-inhibitory concentration (IC50) in series [1] (setting [5]) is over 80 µM. In addition, the IC50 in series [2] (setting [6]) came out at 46.3 ± 1.77 µM. In addition, the IC50 in series [3] (setting [7]) was determined as 28.6 ± 1.06 µM. In series [4] (setting [8]), the IC50 is over 80 µM.
The molecule `C=C(C)[C@@H]1CC[C@]2(/C=N/NC(=S)Nc3ccc(OC)cc3)CC[C@]3(C)C(CCC4[C@@]5(C)CC[C@H](O)C(C)(C)C5CC[C@]43C)C12` (stereo partly drawn) [Compound 8d, Lup-20(29)-ene-3β-ol-28-N-(4-methoxyphenyl)thiosemicarbazide] returned a melting point of 203.7 to 205.2 °C. The IC50 in series [1] (setting [5]) was over 80 µM. The IC50 in series [2] (setting [6]) was over 80 µM. Further, the IC50 in series [3] (setting [7]) worked out at 38.4 ± 1.58 µM. For the same molecule, the IC50 in series [4] (setting [8]) was over 80 µM.
In turn, `C=C(C)[C@@H]1CC[C@]2(/C=N/NC(=S)Nc3ccc(C(C)(C)C)cc3)CC[C@]3(C)C(CCC4[C@@]5(C)CC[C@H](O)C(C)(C)C5CC[C@]43C)C12` (stereo partly drawn) [Compound 8e, Lup-20(29)-ene-3β-ol-28-N-(4-tert-butylphenyl)thiosemicarbazide] returned a melting point of 216.8 to 218.2 °C. Besides, the IC50 in series [1] (setting [5]) is over 80 µM. In addition, the IC50 in series [2] (setting [6]) was over 80 µM. In series [3] (setting [7]), the IC50 came out at 46.4 ± 3.42 µM. In addition, the IC50 in series [4] (setting [8]) was over 80 µM.
For the molecule `C=C(C)[C@@H]1CC[C@]2(/C=N/NC(=S)Nc3ccc(Cl)c(Cl)c3)CC[C@]3(C)C(CCC4[C@@]5(C)CC[C@H](O)C(C)(C)C5CC[C@]43C)C12` (stereo partly drawn) [Compound 8g, Lup-20(29)-ene-3β-ol-28-N-(3,4-dichlorophenyl)thiosemicarbazide], the melting point was in the range of 219.8 to 221.8 °C. For the same molecule, the 50% inhibitory concentration (IC50) in series [1] (setting [5]) worked out at 16.9 ± 1.05 µM. Moreover, the IC50 in series [2] (setting [6]) stood at 20.2 ± 0.87 µM. Moreover, the half-maximal inhibitory concentration (IC50) in series [3] (setting [7]) worked out at 11.3 ± 1.07 µM. The 50% inhibitory concentration (IC50) in series [4] (setting [8]) worked out at 174 ± 5.14 µM.
As to `CO[C@@]12[C@H](COC(N)=O)C3=C(C(=O)C(C)=C(N)C3=O)N1C[C@@H]1N[C@@H]12` [Mitomycin, Mitomycin C, reference compound], the IC50 in series [1] (setting [5]) was 12.8 ± 1.08 µM; in series [2] (setting [6]), 11.4 ± 0.87 µM; in series [3] (setting [7]) it was 15.9 ± 1.03 µM; in series [4] (setting [8]), 20.5 ± 1.02 µM.

As a reminder, the IC50 is the concentration that inhibits the measured activity by half. What is called melting point is the temperature of the solid-liquid transition.
